This note sets out measurements from patent publication US7285392B2, “Methods for identifying active compounds” (Biovitrum AB, priority 2003, dated 2007).

Experiment [1] concerns protein interactions with GHRE DNA probe. Nature of the experiment: EMSA with GHRE DNA probe, nuclear extracts of GHR-transfected and non-transfected WRL-68 cells. Format: cell-based, human. The method, then:
(§1) Cell culture: WRL-68 cells, a human fetal hepatic cell-line, were cultured in EMEM medium with NaHCO3 (Statens Veterinärmedicinska Anstalt), supplemented with 10% fetal bovine serum (FBS), 2% L-Glutamine, 1% Pyruvate and 1% Non essential amino acids (NEA), all from GIBCO. The cells were sub-cultivated twice weekly by trypsination to maintain a cell density of approximately 80%.
Transfection: Cells were transfected with human full-length GH-receptor (pMB1288, 2 μg/μl) by using DOTAP Liposomal Transfection Reagent (Roche), according to manufacturers manual. With this reagent a cationic liposome-mediated transfection method (lipofection) is used. T75 flasks with WRL-68 cells were transfected with 10 μg DNA for each flask. 5 μl (10 μg) DNA was diluted with 250 μl OPTIMEM1 medium (GIBCO) and mixed gently with 75 μl DOTAP reagent diluted in 175 μl OPTIMEM1 medium. The mixture was incubated for 10 minutes and then mixed gently with 10 ml OPTIMEM1 medium. Cells were washed once and then incubated for 4 hours with the DNA/DOTAP transfection mix, which was then changed to fresh culture medium. Cells were re-seeded into new culture dishes the following day.
(§2) Stimulation: Cells were stimulated two days after transfection at a confluence of approximately 80%. […]
(§3) Extraction of nuclear proteins: To extract the proteins from the nuclei, the nuclear pellets were re-suspended in 2×lysis buffer with protease and phosphatase inhibitors (100 mM HEPES, pH 7.6, 300 mM NaCl, 10 mM EDTA (GIBCO), 2% Triton X-100 (Sigma), 0.2 mM PMSF, 0.2 mM sodium orto-vanadate, 2 nM okadaic acid, 1×complete), or EMSA buffer with inhibitors (20 mM Tris pH 8.0, 1.5 mM MgCl2, 0.2 mM EDTA, 25% glycerol, 0.5 mM PMSF, 0.2 mM sodium ortho-vanadate, 2 nM okadaic acid, 1×complete protease inhibitor), depending on whether the samples should also be used in electrophoresis mobility shift assays (EMSA) or not. For an optimal protein extraction, three different methods were evaluated. […] Optimal extraction was evaluated by Western blot and protein concentration determination as described below. […]

For experiment [2], the system named is protein interactions with AP2 DNA probe. The experiment is described as follows: EMSA with AP2 DNA probe, nuclear extracts of GHR-transfected WRL-68 cells. It counts as cell-based, human. The note with it: stimulated. The protocol:
as §1
(§4) Transfection: Cells were transfected with human full-length GH-receptor (pMB1288, 2 μg/μl) by using DOTAP Liposomal Transfection Reagent (Roche), according to manufacturers manual. With this reagent a cationic liposome-mediated transfection method (lipofection) is used. […]
(§5) Extraction of nuclear proteins: To extract the proteins from the nuclei, the nuclear pellets were re-suspended in 2×lysis buffer with protease and phosphatase inhibitors (100 mM HEPES, pH 7.6, 300 mM NaCl, 10 mM EDTA (GIBCO), 2% Triton X-100 (Sigma), 0.2 mM PMSF, 0.2 mM sodium orto-vanadate, 2 nM okadaic acid, 1×complete), or EMSA buffer with inhibitors (20 mM Tris pH 8.0, 1.5 mM MgCl2, 0.2 mM EDTA, 25% glycerol, 0.5 mM PMSF, 0.2 mM sodium ortho-vanadate, 2 nM okadaic acid, 1×complete protease inhibitor), depending on whether the samples should also be used in electrophoresis mobility shift assays (EMSA) or not. For an optimal protein extraction, three different methods were evaluated. […]
(In general: Mobility shift assays separate free from complexed probe on a gel.)

Experiment [3] has as its system protein interactions with OCT1 DNA probe. Nature of the experiment: EMSA with OCT1 DNA probe, nuclear extracts of WRL-68 cells. Format: cell-based, human. As to conditions: stimulated. The protocol:
as §1, §4, §5

Experiment [4] relates to AP1 transcription factor binding to AP1 DNA probe. Nature of the experiment: EMSA with AP1 DNA probe (control), nuclear extracts of non-transfected WRL-68 cells. It counts as cell-based, human. The note with it: stimulated. The method, then:
as §1, §2, §3

The subject of the next experiment is GH-inducible mRNA. The experiment is described as follows: GH-inducible mRNA level. Format: cell-based.
The target of experiment [5] is T1, GH receptor interaction with other transcription factors (Homo sapiens, UniProt P10912).
T1 construct: Cells were transfected with human full-length GH-receptor (pMB1288, 2 μg/μl); expressed in transfected cells; host or cells: WRL-68 (human fetal hepatic cell line), plasmid pMB1288
T1 sequence (P10912 19-638): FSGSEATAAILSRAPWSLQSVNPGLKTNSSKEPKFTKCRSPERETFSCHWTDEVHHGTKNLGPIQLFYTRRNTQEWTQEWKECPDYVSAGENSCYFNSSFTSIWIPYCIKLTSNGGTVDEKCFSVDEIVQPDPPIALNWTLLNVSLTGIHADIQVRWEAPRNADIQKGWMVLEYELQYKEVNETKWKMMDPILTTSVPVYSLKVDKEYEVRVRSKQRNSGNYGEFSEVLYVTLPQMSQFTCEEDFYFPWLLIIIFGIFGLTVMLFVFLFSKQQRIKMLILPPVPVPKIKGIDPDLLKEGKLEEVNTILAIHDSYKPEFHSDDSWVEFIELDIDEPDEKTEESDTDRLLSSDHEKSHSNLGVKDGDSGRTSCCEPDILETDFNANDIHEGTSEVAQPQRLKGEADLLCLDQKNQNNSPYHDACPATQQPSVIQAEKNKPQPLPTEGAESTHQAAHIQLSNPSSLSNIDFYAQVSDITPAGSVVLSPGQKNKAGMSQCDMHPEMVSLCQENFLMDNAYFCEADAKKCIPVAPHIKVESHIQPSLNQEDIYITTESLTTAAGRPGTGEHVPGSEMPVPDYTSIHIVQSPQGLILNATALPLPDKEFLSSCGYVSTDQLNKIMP
The experiment is described as follows: Electrophoretic mobility shift assays, GH-receptor transfected cells (summary). Format: cell-based. The note with it: treatment with BVTA. The protocol: Electrophoretic Mobility Shift Assay: Electrophoretic Mobility Shift Assay (EMSA) is a method used to investigate protein-DNA interactions. A DNA probe with a known sequence is end-labeled with ^33P-ATP and then incubated with nuclear extracts. Proteins that bind specifically to the DNA-probe will reduce the mobility of the complex when separated on a non-denaturing poly acryl-amid gel and a shifted band can be seen. To identify proteins bound to the DNA-probe, an antibody can be added to the nuclear extract before incubation with the DNA-probe. If the antibody recognizes a protein that binds to the DNA, the mobility of the complex will be reduced even further and cause a supershift.

The subject of experiment [6] is protein-DNA binding to GHRE DNA probe. The experiment is described as follows: EMSA with GHRE DNA probe, HX rat liver nuclear extracts. As to conditions: HX rats stimulated with hGH vs control animals. The arrangement: species or system Sprague Dawley rat. The protocol:
(§6) Nuclear and cytosolic fractions were prepared from hypophysectomized Sprague Dawley rat livers (ethical license N176/02). The rats had minipumps implanted at 5 weeks of age for administration of hGH. Control animals were not stimulated and thus completely GH-deficient while GH-animals were stimulated continuously with hGH 0.12 mg/kg/day for five days. Animals were anaesthetized and livers were cut out and placed in ice-cold PBS. Livers were then cut into smaller pieces and transferred to 8 ml ice-cold hypotonic buffer with protease and phosphatase inhibitors and were allowed to swell on ice for 10 minutes. […]
as §5

In experiment [7] the test system is protein-DNA binding to OCT1 DNA probe. The experiment is described as follows: EMSA with OCT1 DNA probe, HX rat liver nuclear extracts. The arrangement: species or system Sprague Dawley rat. As to conditions: HX rats stimulated with hGH vs control animals. The protocol: as §6, §5
The subject of experiment [8] is protein-DNA interaction with AP2 DNA probe. Nature of the experiment: EMSA with AP2 DNA probe, HX rat liver nuclear extracts. The note with it: hGH stimulated animals compared to control animals. The arrangement: species or system Sprague Dawley rat. The method, then:
as §6, §5

For the compound `Cc1ccc(S(N)(=O)=O)cc1NC(=O)c1ccc(Br)o1` [BVTA, N-[5-(aminosulfonyl)-2-methylphenyl]-5-bromo-2-furamide], the “protein-DNA interaction in top shifted band, GHRE probe” value in experiment [1] (GHR-transfected WRL-68 cells stimulated with BVTA) is recorded as “disrupted”. For the same compound, the “effect on GHRE top weak band” value in experiment [1] (non-transfected WRL-68 cells, stimulated) is “no effect”. Moreover, the “protein-DNA interaction, top specific band, AP2 probe” value in experiment [2] is recorded as “broke the protein-DNA interaction”. In addition, the “protein-DNA interaction, top specific band, OCT1 probe” value in experiment [3] was “decreased”. Besides, the “effect on AP1 shifted band” value in [4] is “no effects”. In addition, in the experiment on GH-inducible mRNA, the “GH-inducible mRNA” value is “decrease”. Further, the “interaction of GH receptor with other transcription factors” value in experiment [5] is reported as “down regulated”.
“hGH: human growth hormone (Genotropin, Pharmacia)”: the “effect of stimulation on shifted bands, GHRE probe” value in experiment [1] (both GHR-transfected and non-transfected WRL-68 cells) was “No effect”. For the same compound, the “protein-DNA interaction, top specific band, AP2 probe” value in experiment [2] is “no effects”. The “protein-DNA interaction, top specific band, OCT1 probe” value in experiment [3] is “No effects”. The “effect on AP1 shifted band” value in experiment [4] is “no effects”. Also, the “protein-DNA binding, GHRE probe, hGH stimulation” value in experiment [6] is on record as “did not show any differences”. For the same compound, in experiment [7], the “protein-DNA binding, OCT1 probe, hGH stimulation” value was “did not show any differences”. Further, the “protein-DNA binding, AP2 probe, hGH stimulation” value in experiment [8] was “No difference in protein-DNA binding”.
